Drawing on ChEMBL document CHEMBL6109164, “Discovery of Novel DDR1 Inhibitors through a Hybrid Virtual Screening Pipeline, Biological Evaluation and Molecular Dynamics Simulations” (ACS Med Chem Lett, 2025), this text covers Activity and Occ for two compounds.

Calls of active or inactive are those of the source. The rule behind the calls is not given here.

One assay has as its system Z-138. The assay is described as follows: Cytotoxicity against human Z138 cells assessed as reduction in cell viability. The class given is functional, cell-based.
The target in assay [1] is Epithelial discoidin domain-containing receptor 1 (Homo sapiens) (UniProt Q08345). The assay is described as follows: Binding affinity to DDR1 (unknown origin) at VAL624 residue assessed as occupancy relative to control.
Sequence of Epithelial discoidin domain-containing receptor 1 (Homo sapiens) (Q08345 whole entry, the tested form may be a part): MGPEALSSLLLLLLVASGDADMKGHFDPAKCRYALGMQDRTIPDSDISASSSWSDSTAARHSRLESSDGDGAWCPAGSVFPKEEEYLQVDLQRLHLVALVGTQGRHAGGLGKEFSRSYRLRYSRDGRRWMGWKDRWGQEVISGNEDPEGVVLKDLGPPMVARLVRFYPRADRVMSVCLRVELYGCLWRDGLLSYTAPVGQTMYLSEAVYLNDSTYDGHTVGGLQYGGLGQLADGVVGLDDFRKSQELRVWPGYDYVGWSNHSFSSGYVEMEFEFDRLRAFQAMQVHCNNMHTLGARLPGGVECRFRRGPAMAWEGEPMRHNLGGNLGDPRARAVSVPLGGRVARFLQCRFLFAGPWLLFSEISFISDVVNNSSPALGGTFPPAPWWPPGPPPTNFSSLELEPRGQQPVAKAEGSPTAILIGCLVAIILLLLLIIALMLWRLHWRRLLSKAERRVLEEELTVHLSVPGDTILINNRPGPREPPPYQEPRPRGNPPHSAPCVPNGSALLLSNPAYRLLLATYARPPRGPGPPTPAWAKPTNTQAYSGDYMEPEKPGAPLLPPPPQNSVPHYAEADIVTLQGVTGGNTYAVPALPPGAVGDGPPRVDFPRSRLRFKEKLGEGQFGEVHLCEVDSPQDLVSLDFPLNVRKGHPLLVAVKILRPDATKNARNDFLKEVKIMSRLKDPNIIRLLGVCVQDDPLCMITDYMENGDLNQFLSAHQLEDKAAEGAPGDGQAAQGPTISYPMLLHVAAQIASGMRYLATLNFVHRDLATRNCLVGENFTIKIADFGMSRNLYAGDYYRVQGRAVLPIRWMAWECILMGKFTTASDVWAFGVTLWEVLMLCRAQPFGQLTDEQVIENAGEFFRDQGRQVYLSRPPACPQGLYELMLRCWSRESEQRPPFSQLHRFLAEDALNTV
Assay [2] has the same target. The assay is described as follows: Binding affinity to DDR1 (unknown origin) at LYS655 residue assessed as occupancy relative to control.

For `CN1CCN(c2ccc(C(=O)Nc3n[nH]c4ccc(Cc5cc(F)cc(F)c5)cc34)c(NC3CCOCC3)c2)CC1`, in the assay on Z-138, the outcome was Active. Further, the Occ in assay [1] is 82.8%; in assay [2] it was 69.9%.

Turning to `Cc1cc(Nc2cc(N3CCN(C)CC3)nc(Sc3ccc(NC(=O)C4CC4)cc3)n2)n[nH]1`, the outcome in the assay with Z-138 was Active.
